{"source": "paper PMC4833387", "about": "(PLoS ONE, 2016)", "molecular_target": "T1, Aurora B kinase (Homo sapiens, UniProt Q96GD4)", "T1 construct": "gene AURKB; 6×His-Aurora B/INCENP^(822–918); with INCENP^(822–918)", "T1 sequence (Q96GD4 whole entry)": "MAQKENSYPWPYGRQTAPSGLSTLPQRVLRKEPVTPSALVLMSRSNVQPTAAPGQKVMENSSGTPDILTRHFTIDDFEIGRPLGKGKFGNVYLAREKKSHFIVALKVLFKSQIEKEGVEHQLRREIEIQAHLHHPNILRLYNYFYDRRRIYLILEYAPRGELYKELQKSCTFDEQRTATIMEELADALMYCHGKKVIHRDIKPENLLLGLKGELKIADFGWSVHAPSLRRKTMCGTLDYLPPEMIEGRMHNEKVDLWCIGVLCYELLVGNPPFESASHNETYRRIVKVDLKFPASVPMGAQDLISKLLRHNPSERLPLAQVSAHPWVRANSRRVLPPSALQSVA", "T1 sequence (Q9NQS7 822-918 partner)": "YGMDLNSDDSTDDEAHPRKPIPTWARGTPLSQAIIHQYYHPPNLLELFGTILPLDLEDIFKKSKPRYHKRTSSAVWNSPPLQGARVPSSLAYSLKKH", "experiment": "in vitro […] kinase assay with recombinant complex (histone H3.[…] and MBP substrates); confirmed by IP kinase assay from HeLa lysates", "type": "biochemical", "data": [{"smiles": "CC(=O)c1cnc2ccc(-c3cc(Cl)c(O)c(Cl)c3)nc2c1N[C@H]1CC[C@H](CN(C)C)CC1", "note": "[OTSSP167]", "values": [{"measurement": "IC50", "result": "~25", "unit": "nM"}]}]}
